The results in this text go back to US20260274814A1, “THIENYL COMPOUNDS FOR THE TREATMENT OF A CENTRAL NERVOUS SYSTEM DISEASE OR DISORDER” (Coreterra Therapeutics, Inc., priority 2023, published 2026).

This experiment relates to mice. Kind of experiment: Neuropharmacological Assay (SmartCube): automated behavioral signature of compound-treated mice compared with a database of reference drug classes. The experiment is classed as in vivo. The note with it: for MED (minimal effective dose) / minimal effective dose / MED: i.p., that dose is shown; for minimal effective dose: Mus musculus, ip. The procedure, abridged: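 Compounds in N-methyl-2-pyrrolidone/polyethylene glycol/propylene glycol were given i.p. 15 min before testing, at 3 doses; values shown are for 3.0 mg/kg. Video-captured behaviour was matched by algorithm against reference drug classes, giving a probability per class. MED: lowest dose reaching ≥45% total activity.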

Where [1] appears, read: dose having 45% or more total activity in SmartCube, if only one dose was tested, hydrochloride.
Setting [2] is: probability that activity matches this class of agents, 3.0 mg/kg i.p., 15 min before test.
The mark [3] stands for this setting: probability that activity matches this class of agents, 3.0 mg/kg i.p., 15 min before test, hydrochloride, 3 mg/kg.
The mark [4] stands for this setting: minimal effective dose: dose having 45% or more total activity in SmartCube, if only one dose tested, read-out: MED.
Where [5] appears, read: SmartCube class probability, 3.0 mg/kg i.p., 15 min before test.
Where [6] appears, read: dose having 45% or more total activity in SmartCube, if only one dose was tested, read-out: MED (minimal effective dose).
The mark [7] stands for this setting: SmartCube probability class, 3.0 mg/kg dose, i.p. 15 min before the behavioral test.
Where [8] appears, read: SmartCube probability class, 3.0 mg/kg dose, i.p. 15 min before the behavioral test, hydrochloride, 3 mg/kg.

Structures can show the parent of a compound that is named as a salt. Where two headings read alike, the source gives them in different places.

With `CNC1COc2ccsc2C1` (single isomer, unassigned) [Compound 47, N-methyl-6,7-dihydro-5H-thieno[3,2-b]pyran-6-amine hydrochloride], the “MED (minimal effective dose)” value under setting [1] turned out to be 0.3 mpk. Under setting [2], the AG entry was “ND (^ <4%)”, the AN result is given as “ND (^ <4%)”, the AP entry is “ND (^ <4%)” and the CE entry is recorded as “ND (^ <4%)”. Further, under setting [2], the HL result was “ND (^ <4%)”, the MS result is listed as “ND (^ <4%)”, the PS entry was “ND (^ <4%)” and the SH entry is given as “ND (^ <4%)”. Also, under setting [3], the AD entry was “++++ (≥74%)”, the AX result is “ND (^ <4%)” and the UK result is on record as “ND (^ <4%)”.

Turning to `CNC1COc2sccc2C1` (stereo not drawn) [Compound 234, N-methyl-3,4-dihydro-2H-thieno[2,3-b]pyran-3-amine hydrochloride], the minimal effective dose under setting [4] came out at 1 mg/kg. In addition, under setting [5], the AD entry is given as “ND (^ <4%)”, the AG entry is listed as “ND (^ <4%)”, the AN result is given as “ND (^ <4%)” and the AP result is “++++ (≥74%)”. Also, under setting [5], the AX entry is on record as “+ (≥4%)”, the CE entry was “ND (^ <4%)”, the HL entry is “ND (^ <4%)” and the MS result was “ND (^ <4%)”. Under setting [5], the PS entry is on record as “ND (^ <4%)”, the SH entry is given as “ND (^ <4%)” and the UK result is recorded as “ND (^ <4%)”.

On to `CNC1CCc2scc(C(F)(F)F)c2C1` (stereo not drawn) [Compound 140, N-methyl-3-(trifluoromethyl)-4,5,6,7-tetrahydrobenzothiophen-5-amine hydrochloride], for which, under setting [4], the minimal effective dose came to 3 mg/kg. Moreover, under setting [5], the AD entry was “ND (^ <4%)”, the AG entry is recorded as “ND (^ <4%)”, the AN result is recorded as “ND (^ <4%)” and the AP entry is “+ (≥4%)”. For the same molecule, under setting [5], the AX result is “ND (^ <4%)”, the CE entry is reported as “ND (^ <4%)”, the HL result was “ND (^ <4%)” and the MS entry is on record as “ND (^ <4%)”. Besides, under setting [5], the PS entry was “ND (^ <4%)”, the SH result is “ND (^ <4%)” and the UK result was “+++ (≥49%)”.

In the case of `CNC1(C)CCc2c(F)csc2C1` (stereo not drawn) [Compound 109, 3-fluoro-N, 6-dimethyl-5,7-dihydro-4H-benzothiophen-6-amine hydrochloride], the minimal effective dose under setting [6] is less than 3 mg/kg. Under setting [2], the AD result is on record as “++++ (≥74%)”, the AG result is “ND (^ <4%)”, the AN result is “ND (^ <4%)” and the AP result is reported as “ND (^ <4%)”. Under setting [2], the AX result is “ND (^ <4%)”, the CE entry is given as “ND (^ <4%)”, the HL result was “ND (^ <4%)” and the MS result was “ND (^ <4%)”. Besides, under setting [2], the PS entry is “ND (^ <4%)”, the SH entry was “ND (^ <4%)” and the UK entry is given as “ND (^ <4%)”.

In the case of `CNC1CCc2csc(C#N)c2C1` (stereo not drawn) [Compound 93, 6-(methylamino)-4,5,6,7-tetrahydro-2-benzothiophene-1-carbonitrile hydrochloride], the minimal effective dose under setting [6] was found to be 0.1 mg/kg. Under setting [2], the AD entry is “ND (^ <4%)”, the AG result is reported as “ND (^ <4%)”, the AN entry is given as “ND (^ <4%)” and the AP result is “++++ (≥74%)”. Under setting [2], the AX result is “ND (^ <4%)”, the CE result is “ND (^ <4%)”, the HL result is listed as “ND (^ <4%)” and the MS entry is “ND (^ <4%)”. Also, under setting [2], the PS entry is on record as “ND (^ <4%)”, the SH result was “ND (^ <4%)” and the UK entry is “ND (^ <4%)”.

Turning to `CNC1CCc2scc(CN)c2C1` (single isomer, unassigned) [Compound 237, 3-(aminomethyl)-N-methyl-4,5,6,7-tetrahydrobenzothiophen-5-amine dihydrochloride], under setting [5], the AD result is reported as “ND (^ <4%)”, the AG entry was “ND (^ <4%)”, the AN entry is on record as “ND (^ <4%)” and the AP entry is recorded as “ND (^ <4%)”. Moreover, under setting [5], the AX entry is listed as “ND (^ <4%)”, the CE entry is recorded as “ND (^ <4%)”, the HL entry was “ND (^ <4%)” and the MS entry was “ND (^ <4%)”. In addition, under setting [5], the PS entry is reported as “ND (^ <4%)” and the SH result is “ND (^ <4%)”. Also, the UK entry (SmartCube class probability, 3.0 mg/kg i.p., 15 min before test, dihydrochloride, 3 mg/kg) is given as “+ (≥4%)”. In addition, where the note is “minimal effective dose: dose having 45% or more total activity in SmartCube, if only one dose tested”, the MED is recorded as more than 3 mpk.

With `CNC1CCc2csc(F)c2C1` (single isomer, unassigned) [Compound 73, 3-fluoro-N-methyl-4,5,6,7-tetrahydro-2-benzothiophen-5-amine hydrochloride], under setting [1], the “MED (minimal effective dose)” value is 1 mpk. Under setting [2], the AG entry was “ND (^ <4%)”, the AN result is “ND (^ <4%)”, the CE entry was “ND (^ <4%)” and the HL result is on record as “ND (^ <4%)”. Moreover, under setting [2], the MS result is listed as “ND (^ <4%)”, the PS result is recorded as “ND (^ <4%)”, the SH result is given as “ND (^ <4%)” and the UK result was “ND (^ <4%)”. In addition, under setting [3], the AD result is listed as “ND (^ <4%)”, the AP result is “ND (^ <4%)” and the AX entry is reported as “++++ (≥74%)”.

For `CNC1CCc2sccc2C1.Cl` (single isomer, unassigned) [Compound 11, N-methyl-4,5,6,7-tetrahydrobenzothiophen-5-amine hydrochloride], the “MED (minimal effective dose)” value under setting [1] worked out at 0.3 mpk. Also, under setting [2], the AG result is “ND (^ <4%)”, the AN result is listed as “ND (^ <4%)”, the CE result was “ND (^ <4%)” and the HL result is recorded as “ND (^ <4%)”. Under setting [2], the MS result is on record as “ND (^ <4%)”, the PS entry is reported as “ND (^ <4%)”, the SH result was “ND (^ <4%)” and the UK entry is recorded as “ND (^ <4%)”. Also, under setting [3], the AD result is given as “ND (^ <4%)”, the AP entry is “++++ (≥74%)” and the AX entry was “ND (^ <4%)”.

As to `CC1(N2CCCC2)CCc2sccc2C1.Cl` (single isomer, unassigned) [Compound 284, 1-(5-methyl-4,5,6,7-tetrahydrobenzo[b]thiophen-5-yl)pyrrolidine hydrochloride], under setting [7], the AD result is recorded as “ND (^ <4%)”, the AG result was “ND (^ <4%)”, the AN entry is given as “ND (^ <4%)” and the AP result was “ND (^ <4%)”. Moreover, under setting [7], the AX entry is listed as “ND (^ <4%)”, the CE entry was “ND (^ <4%)”, the HL entry is “ND (^ <4%)” and the MS entry was “ND (^ <4%)”. Besides, under setting [7], the PS entry is given as “ND (^ <4%)” and the SH entry is “ND (^ <4%)”. Also, the UK result under setting [8] is given as “++ (≥24%)”. In addition, the MED (minimal effective dose: dose having 45% or more total activity in SmartCube, if only one dose was tested) was 3 mpk.

As for `CNC1CCc2c(Cl)sc(Cl)c2C1` (single isomer, unassigned) [Compound 59, 1,3-dichloro-N-methyl-4,5,6,7-tetrahydro-2-benzothiophen-5-amine hydrochloride], the minimal effective dose under setting [6] was 3 mg/kg. Also, under setting [2], the AD result is “ND (^ <4%)”, the AG result is on record as “ND (^ <4%)”, the AN entry is listed as “ND (^ <4%)” and the CE entry is recorded as “ND (^ <4%)”. Besides, under setting [2], the HL result is listed as “ND (^ <4%)”, the MS result is “ND (^ <4%)”, the PS result was “ND (^ <4%)” and the SH entry is “ND (^ <4%)”. Under setting [2], the UK entry was “ND (^ <4%)”. Besides, under setting [3], the AP result was “+++ (≥49%)” and the AX entry is “++ (≥24%)”.

With `CCc1sc(CC)c2c1CCC(NC)C2` (single isomer, unassigned) [Compound 117, 1,3-diethyl-N-methyl-4,5,6,7-tetrahydro-2-benzothiophen-5-amine hydrochloride], the minimal effective dose under setting [6] was more than 3 mg/kg. In addition, under setting [2], the AD entry is recorded as “ND (^ <4%)”, the AG entry was “ND (^ <4%)”, the AN entry is recorded as “ND (^ <4%)” and the AP result is listed as “ND (^ <4%)”. Besides, under setting [2], the AX entry is given as “ND (^ <4%)”, the CE result was “ND (^ <4%)”, the HL result is reported as “ND (^ <4%)” and the MS result is given as “ND (^ <4%)”. For the same molecule, under setting [2], the PS entry was “ND (^ <4%)” and the SH entry is reported as “ND (^ <4%)”. The UK entry under setting [3] is listed as “ND (^ <4%)”.

As to `Cc1csc2c1OCC(N)C2` (single isomer, unassigned) [Compound 295, 3-methyl-6,7-dihydro-5H-thieno[3,2-b]pyran-6-amine hydrochloride], the minimal effective dose (minimal effective dose: dose having 45% or more total activity in SmartCube, if only one dose was tested, read-out: MED) stood at 3 mg/kg. Moreover, under setting [7], the AD entry is given as “ND (^ <4%)”, the AG entry is “ND (^ <4%)”, the AN result is “ND (^ <4%)” and the AX result is on record as “ND (^ <4%)”. In addition, under setting [7], the CE result is recorded as “ND (^ <4%)”, the HL result is “ND (^ <4%)”, the MS entry is listed as “ND (^ <4%)” and the PS result was “ND (^ <4%)”. The SH result under setting [7] is “ND (^ <4%)”. Besides, under setting [8], the AP entry was “+++ (≥49%)” and the UK result is “ND (^ <4%)”.
